Assays:
[1] = tested on: NZM mice; test: Survival, NZM lupus nephritis model, ip dosing (Example 2); format: in vivo, mouse
[2] = tested on: MRL/lpr mice; test: Spleen plasma cells by flow cytometry, MRL/lpr mice
[3] = tested on: MRL/lpr mice; test: Lymphomegaly (enlarged lymph nodes), MRL/lpr mice; format: in vivo, mouse; conditions: for lymphomegaly decrease compared to vehicle: iv
Experimental: FIG. 4 depicts lymphomegaly for MRL/lpr mice across treatment groups for the study duration. MRL/lpr mice were treated as outlined in the legend. Lymphomegaly or presence of enlarged lymph nodes were observed weekly and noted.
(§1) Mice are tracked on an individual basis.
(§2) Vehicle alone is provided orally twice weekly (p.o.). Both proteasome inhibitors are suspended in the vehicle solution. […] In addition, urine proteinuria is determined for all animals.
(§3) Vehicle was 3% DMSO/10% Solutol/87% PBS.

[4] = tested on: NZM mice; test: Body weight progression, NZM mice (Example 2); format: in vivo, mouse
[5] = tested on: MRL/lpr mice; test: Luminex analysis of serum cytokines (IL-12p40/p70, IL-1β, TNFα), MRL/lpr mice; format: in vivo, mouse
Experimental: For the processing of serum samples for cytokine analysis, frozen plasma at −80° C. is thawed on ice, vortexed, and centrifuged for 10 minutes to remove debris and aggregates. A total of 25-50 μL of serum is used for Luminex® assays following the manufacturer's instructions. Ten different mouse cytokines are measured using the mouse cytokine 10-plex bead kit (Invitrogen, Carlsbad, Calif., no. LMC0001). Briefly, filter plates (Millipore, Billerica, Mass., no. MAIPSWU10), are pre-wet with 200 μL of wash solution (kit component) and 25 μL of beads are added per well. Serum samples are diluted and a total volume of 50 μL is added per well (ie, 25 μL of sample serum plus 25 μL of assay diluent as provided by the manufacturer). Plates with beads are incubated for 2 hours at room temperature (RT) on an orbital shaker in the dark. At the end of the incubation, plate(s) are washed twice in kit buffer, secondary biotinylated antibody is added at a 1:10 dilution (100 μL) in biotin diluent provided with the kit. Plates are incubated at RT for 1 hour in the dark then washed twice in kit buffer. Strepavidin in assay diluent is added at 100 μL per well, then incubated for 30 minutes at RT in the dark. The plates are washed 3 times then 100 μL of kit wash solution is added and agitated for 2-3 minutes at RT in the dark. Plates are run immediately following this incubation period on a Luminex xMAP 200 unit with data acquisition and analysis software (Invitrogen, San Diego, Calif., no. MAP0200). All bead washing is performed using a vacuum manifold unit (Pall, Ann Arbor, Mich. no. 5017). For all cytokine Luminex assays, values below the limit of detection set by the lowest point along the standard or set by the manufacturer are considered out of range and are not estimated, but assumed the lowest point along the standard curve for that particular assay.
as §1, §2, §3

[6] = tested on: NZM mice; test: Serum C3 complement ELISA, NZM mice (Example 2)
[7] = tested on: MRL/lpr mice; test: Splenomegaly (spleen mass), MRL/lpr mice; format: in vivo, mouse
Experimental: FIG. 5 depicts splenomegaly for MRL/lpr mice across treatment groups for the study duration. MRL/lpr mice were treated as outlined in the legend. The spleen masses for all mice that survived until the end of the experiment are graphed. Each symbol represents the spleen weight for one mouse at 25 weeks of age.
as §1, §2, §3

[8] = tested on: MRL/lpr mice; test: Antinuclear antibody (ANA) ELISA (anti-chromatin, anti-Smith Ag, anti-dsDNA IgG), serum of MRL/lpr mice; format: in vivo, mouse
Source text: For all ANA ELISA assays, values below the limit of detection set by the lowest point along the standard or set by the manufacturer are considered out of range and are not estimated, but assumed the lowest point along the standard curve for that particular assay.

[9] = tested on: NZM mice; format: in vivo, mouse; conditions: G1 3 mg/kg 1× wk ip

## CC(C)C[C@H](NC(=O)[C@@H](NC(=O)c1cccc(-c2ccccc2)n1)[C@@H](C)O)B(O)O [COMPOUND A, [(1R)-1-[[(2S,3R)-3-hydroxy-2-[6-phenyl-pyridine-2-carbonyl)amino]-1-oxobutyl]amino]-3-methylbutylboronic acid]
[1]; COMPOUND A treatment groups, vehicle 45%
  animals remaining at the end of the study (day 310): 100%
[1]; G1 3 mg/kg ip, 1× wk
  EOS survival, percent live mice from original number: 100%
[1]; G1: 3 mg/kg ip once per week
  survival increase relative to vehicle: 55%
[1]; G2 3 mg/kg ip, 2× wk
  EOS survival, percent live mice from original number: 91%
[1]; G2: 3 mg/kg ip twice weekly
  survival increase relative to vehicle: 46%
[1]; both treatment groups of the substance
  mice still alive at day 56: 100%
[2]; G1: 3 mg/kg iv, 1× wk
  EOS plasma cells, percent change vs vehicle: −67%
[2]; G2: 3 mg/kg iv, 2× wk
  EOS plasma cells, percent change vs vehicle: −67%
[2]; G3: 10 mg/kg po, 2× wk
  EOS plasma cells, percent change vs vehicle: −67%
[2]; Groups 1-3 (each)
  spleen plasma cells decrease vs vehicle: 67%
[3]; G1: 3 mg/kg iv, 1× wk
  AUC lymphomegaly, percent of non enlarged lymph nodes relative to vehicle: 71%
[3]; G2: 3 mg/kg iv, 2× wk
  AUC lymphomegaly, percent of non enlarged lymph nodes relative to vehicle: 34%
[3]; G3: 10 mg/kg po, 2× wk
  AUC lymphomegaly, percent of non enlarged lymph nodes relative to vehicle: 9%
[3]; first value (G1: 3 mg/kg 1× wk)
  lymphomegaly decrease compared to vehicle: 71%
[3]; second value (G2: 3 mg/kg 2× wk)
  lymphomegaly decrease compared to vehicle: 34%
[4]; G1 3 mg/kg ip, 1× wk
  Body mass AUC, percent change vs vehicle: +9%
[4]; G1: 3 mg/kg ip once per week
  body weight increase compared to vehicle: 9%
[4]; G2 3 mg/kg ip, 2× wk
  Body mass AUC, percent change vs vehicle: +10%
[4]; G2: 3 mg/kg ip twice weekly
  body weight increase compared to vehicle: 10%
[5]; 3 mg/kg twice weekly, vehicle 16.8 pg/mL
  serum IL-1β by EOS: 5.7 pg/mL
[5]; G1: 3 mg/kg iv, 1× wk
  Cytokine AUC serum IL-1β, percent change vs vehicle: −56%
  Cytokine AUC serum IL-12, percent change vs vehicle: −48%
  Cytokine AUC serum TNFα, percent change vs vehicle: −62%
[5]; G2: 3 mg/kg iv, 2× wk
  Cytokine AUC serum IL-1β, percent change vs vehicle: −61%
  Cytokine AUC serum IL-12, percent change vs vehicle: −72%
  Cytokine AUC serum TNFα, percent change vs vehicle: −79%
[5]; G3: 10 mg/kg po, 2× wk
  Cytokine AUC serum IL-1β, percent change vs vehicle: −58%
  Cytokine AUC serum IL-12, percent change vs vehicle: −62%
  Cytokine AUC serum TNFα, percent change vs vehicle: −71%
[6]; G1 3 mg/kg 1× wk ip
  p, serum C3 complement levels vs G6 Bortezomib 0.3 mg/kg 2× wk ip: p < 0.01
  p, serum C3 complement levels vs G7 CTX 50 mg/kg 1× wk ip: p < 0.001
  p, serum C3 complement levels vs G9 Vehicle 2× wk po: p < 0.05
[6]; G1 3 mg/kg ip, 1× wk
  Serum C3 complement AUC, percent change vs vehicle: 45%
[6]; G2 3 mg/kg 2× wk ip
  p, serum C3 complement levels vs G7 CTX 50 mg/kg 1× wk ip: p < 0.05
[6]; G2 3 mg/kg ip, 2× wk
  Serum C3 complement AUC, percent change vs vehicle: 32%
[6]; once weekly
  serum C3 increase above vehicle: 45%
[7]; 3 mg/kg iv twice weekly
  splenomegaly decrease vs vehicle at the end of the study: 74%
[7]; G1: 3 mg/kg iv, 1× wk
  EOS spleen mass, percent change vs vehicle: −67%
[7]; G2: 3 mg/kg iv, 2× wk
  EOS spleen mass, percent change vs vehicle: −74%
[7]; G3: 10 mg/kg po, 2× wk
  EOS spleen mass, percent change vs vehicle: −56%
[8]; G1: 3 mg/kg iv, 1× wk
  ANA AUC Smith Ag, percent change vs vehicle: −96%
  ANA AUC chromatin, percent change vs vehicle: −94%
  ANA AUC dsDNA, percent change vs vehicle: −91%
[8]; G2: 3 mg/kg iv, 2× wk
  ANA AUC Smith Ag, percent change vs vehicle: −96%
  ANA AUC chromatin, percent change vs vehicle: −94%
  ANA AUC dsDNA, percent change vs vehicle: −95%
[8]; G3: 10 mg/kg po, 2× wk
  ANA AUC Smith Ag, percent change vs vehicle: −94%
  ANA AUC chromatin, percent change vs vehicle: −91%
  ANA AUC dsDNA, percent change vs vehicle: −37%
[8]; Group 1
  anti-Smith Ag IgG ANA level decrease vs vehicle at EOS: 97%
  anti-chromatin IgG level reduction vs vehicle: 89%
[8]; Group 1 (iv)
  anti-dsDNA IgG ANA decrease vs vehicle: 80%
[8]; Group 2
  anti-Smith Ag IgG ANA level decrease vs vehicle at EOS: 100%
  anti-chromatin IgG level reduction vs vehicle: 98%
[8]; Group 2 (iv)
  anti-dsDNA IgG ANA decrease vs vehicle: 84%
[8]; Group 3
  anti-Smith Ag IgG ANA level decrease vs vehicle at EOS: 86%
  anti-chromatin IgG level reduction vs vehicle: 79%
[9]
  p, serum IL-12p40/p70 concentration vs G5 Bortezomib 0.3 mg/kg 1× wk ip: NS (NS = not significant (p > 0.05))
  p, serum IL-12p40/p70 concentration vs G6 Bortezomib 0.3 mg/kg 2× wk ip: NS (NS = not significant (p > 0.05))
  p, serum IL-12p40/p70 concentration vs G7 CTX 50 mg/kg 1× wk ip: NS (NS = not significant (p > 0.05))
  p, serum IL-12p40/p70 concentration vs G8 Dex 1.5 mg/kg 3× wk ip: NS (NS = not significant (p > 0.05))
  p, serum IL-12p40/p70 concentration vs G9 Vehicle 1× wk ip: p < 0.001
  p, serum IL-13 concentration vs G5 Bortezomib 0.3 mg/kg 1× wk ip: NS (NS = not significant (p > 0.05))
  p, serum IL-13 concentration vs G6 Bortezomib 0.3 mg/kg 2× wk ip: NS (NS = not significant (p > 0.05))
  p, serum IL-13 concentration vs G7 CTX 50 mg/kg 1× wk ip: p < 0.001
  p, serum IL-13 concentration vs G8 Dex 1.5 mg/kg 3× wk ip: NS (NS = not significant (p > 0.05))
  p, serum IL-13 concentration vs G9 Vehicle 1× wk ip: NS (NS = not significant (p > 0.05))
  p, serum IL-17A concentration vs G5 Bortezomib 0.3 mg/kg 1× wk ip: NS (NS = not significant (p > 0.05))
  p, serum IL-17A concentration vs G6 Bortezomib 0.3 mg/kg 2× wk ip: p < 0.01
  p, serum IL-17A concentration vs G7 CTX 50 mg/kg 1× wk ip: p < 0.001
  p, serum IL-17A concentration vs G8 Dex 1.5 mg/kg 3× wk ip: NS (NS = not significant (p > 0.05))
  p, serum IL-17A concentration vs G9 Vehicle 1× wk ip: NS (NS = not significant (p > 0.05))
  p, serum IP-10 concentration vs G5 Bortezomib 0.3 mg/kg 1× wk ip: NS (NS = not significant (p > 0.05))
  p, serum IP-10 concentration vs G6 Bortezomib 0.3 mg/kg 2× wk ip: NS (NS = not significant (p > 0.05))
  p, serum IP-10 concentration vs G7 CTX 50 mg/kg 1× wk ip: p < 0.001
  p, serum IP-10 concentration vs G8 Dex 1.5 mg/kg 3× wk ip: NS (NS = not significant (p > 0.05))

— patent publication US9340559B2, “Proteasome inhibitor delanzomib for use in the treatment of lupus” (Cephalon, Inc., priority 2011, dated 2016)
